The subject of data set [1] is adenosine monophosphate-activated protein kinase (AMPK). Description: Activation of AMPK (p-AMPK/AMPK, Western blotting) in myotube cell model L6-GLUT4myc. In kind it is cell-based, rat. The conditions noted are these: HPH-15 at 1/200th the concentration of metformin (2 mM), 24 hours. The text has this:
The tissues involved in glucose uptake and glucose metabolism are mainly the muscle, the liver, and the fat. Thus, using a cell model of each tissue, the relationship between HPH-15 and activation of adenosine monophosphate-activated protein kinase (AMPK) was examined. Note that AMPK is known as a therapeutic target for diabetes. AMPK acts as an energy sensor, and when it detects a decrease in ATP serving as an intracellular energy source, it suppresses the synthesis of glucose, fats, and proteins and produces ATP. Exercise therapy for diabetes is based on this mechanism. Further, AMPK has been drawing attention as a factor that improves insulin resistance.
As a muscle cell model to be used, rat myoblast cell line L6-GLUT4myc (myoblasts expressing myc-tagged GLUT4) was cultured in a minimal essential medium a-MEM (10% FBS) and differentiated into myotubes. Differentiation into myotubes was performed by culturing L6-GLUT4 cells in a-MEM (10% FBS) and then changing the medium to a-MEM (2% FBS), followed by culturing for 6 days. Human HepG2 cell line was used as a liver cell model. As an adipocyte model to be used, mouse 3T3-L1 preadipocyte cell line was differentiated into adipocytes. Differentiation into adipocytes was performed as follows. […]
Next, bands of AMPK and p-AMPK were quantified using ImageJ to determine a ratio of activated AMPK relative to AMPK (p-AMPK/AMPK).

Data set [2] deals with myotube cell model L6-GLUT4myc. Description: Cytotoxicity (MTT reagent). In kind it is cell-based, rat. As to conditions: HPH-15 1 μM, 10 μM or 50 μM, 24 hours. The procedure:
It was examined whether using HPH-15 as a drug caused any cytotoxicity.
The myotube cell model L6-GLUT4myc, the liver cell model HepG2 cells, and the adipocyte model 3T3-L1 used in Example 1 were each seeded onto a 24-well plate (1×10^5 cells/well, […] of culture liquid) and cultured overnight. Then, a DMSO solution (1%) containing HPH-15 (final concentration: 1 μM, 10 μM or 50 μM) was added to the medium, and the cells were further cultured for 24 hours. As a control, only DMSO solution (1%) was added, and the cells were cultured for 24 hours in the same manner. Next, […] of MTT reagent (3-(4,5-dimethyl-2-thiazolyl)-2,5-diphenyl-2H-tetrazolium bromide: 1.1 mg/mL: Dojindo Laboratories) was added to each well, and the cells were further cultured for 4 hours. After collecting the precipitated crystals, the supernatant was removed and DMSO ([…]) was added to completely dissolve the crystals. Cytotoxicity was evaluated by measuring the absorbance (550 nm) of the solution and determining the number of viable cells.

Data set [3] deals with high-fat diet-induced obesity model mice. The data set can be described thus: Blood test value in mouse. It is filed as in vivo. As to conditions: HPH-15 10 or 100 mg/kg orally 28 days. How it is done:
High-fat diet-induced obesity model mice were prepared in the same manner as in Example 7. Then, […] of olive oil (Kenei Pharmaceutical Co., Ltd.) as a solvent, HPH-15 (10 mg/kg or 100 mg/kg, […]) dissolved in olive oil, or metformin (300 mg/kg, […]) was orally administered once a day for 28 days. After administration of each for 28 days, the blood from the high-fat diet-induced obesity model mice was examined at the Kumamoto Mouse Clinic (Kumamoto National University Corp.).

Where [4] appears, read: compared with metformin 300 mg/kg.

Take `CC(C)(C)SCCNC(=S)c1cccc(C(=S)NCCSC(C)(C)C)n1` [HPH-15]: the “AMPK activation (p-AMPK/AMPK) compared to when metformin was used” value in data set [1] is listed as “approximately 75%”. In data set [2], the “cytotoxicity (number of viable cells)” value is recorded as “no cytotoxicity was confirmed”. The “toxicity (blood test)” value in data set [3] was “No toxicity was observed”. Also, the “other blood test items” value in data set [3] (compared to olive oil) is “no differences were observed”. In data set [3] (setting [4]), the “ALT value (blood test)” value was “lower than that of metformin”, the “AST value (blood test)” value was “significantly lower than those of metformin” and the “LD value (blood test)” value was “significantly lower than those of metformin”.

The record behind these values is patent US20260000655A1, “PHARMACEUTICAL COMPOSITION FOR USE IN PREVENTION OR TREATMENT OF LIFESTYLE-RELATED DISEASE” (priority 2022, published 2026).
